tested on: oval-leafed pondweed; assay: Test Example 2: herbicidal activity, application during weed generation under submerged conditions (Table 17, symbol C); type: in vivo, oval-leafed pondweed (Monochoria vaginalis); conditions: AAH 320 g/ha; application during weed generation, submerged conditions
How it was run: (§1)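 In this pot test, flooded alluvial soil (water depth 4 cm) holds all three species sown as a mixture. Once seedlings have one to two leaves, the compound's emulsion, thinned with water to the intended dose, is poured on the water; grading follows after three weeks on the earlier criteria.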

| Compound | herbicidal effect rating, C: oval-leafed pondweed |
| --- | --- |
| Cc1nn(C)c(=O)c(-c2c(-c3ccc(O)cc3)sc3ccc(F)cc23)c1O [2-337] | 0 (Herbicidal rate of 5% or less (almost no effect)) |
| CC(=O)c1ccc(-c2sc3ccc(F)cc3c2-c2c(O)c(C)nn(C)c2=O)cc1 [2-339] | 3 (Herbicidal rate of 40% or more and less than 70%) |
| Cc1nn(C)c(=O)c(-c2c(-c3ccc([N+](=O)[O-])cc3)sc3ccc(F)cc23)c1O [2-341] | 3 (Herbicidal rate of 40% or more and less than 70%) |

tested on: chickweed; assay: Test Example 5: herbicidal effect by foliage application, plastic box (Table 20, symbol P); type: in vivo, common chickweed (Stellaria media); conditions: foliage application, AAH 320 g/ha, evaluated three weeks after application
How it was run: (§2)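 Sow seeds spot-wise in sterilized diluvial soil; cover with ~1.5 cm soil. Grow 14 days in greenhouse, 25° C. to 30° C. Spray foliage with emulsion diluted to predetermined amount. Rate effect after 3 weeks.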

| Compound | P: chickweed, herbicidal effect (criteria 0-5) |
| --- | --- |
| Cc1nn(C)c(=O)c(-c2c(-c3ccc(O)cc3)sc3ccc(F)cc23)c1O [2-337] | 5 (Herbicidal rate of 90% or more (almost completely withered)) |
| CC(=O)c1ccc(-c2sc3ccc(F)cc3c2-c2c(O)c(C)nn(C)c2=O)cc1 [2-339] | 5 (Herbicidal rate of 90% or more (almost completely withered)) |
| Cc1nn(C)c(=O)c(-c2c(-c3ccc([N+](=O)[O-])cc3)sc3ccc(F)cc23)c1O [2-341] | 5 (Herbicidal rate of 90% or more (almost completely withered)) |

tested on: southern crabgrass; assay: Test Example 5: herbicidal effect by foliage application, plastic box (Table 20, symbol F); type: in vivo, southern crabgrass (Digitaria ciliaris); conditions: foliage application, AAH 320 g/ha, evaluated three weeks after application
How it was run: as §2

| Compound | F: southern crabgrass, herbicidal effect (criteria 0-5) |
| --- | --- |
| Cc1nn(C)c(=O)c(-c2c(-c3ccc(O)cc3)sc3ccc(F)cc23)c1O [2-337] | 0 (Herbicidal rate of 5% or less (almost no effect)) |
| CC(=O)c1ccc(-c2sc3ccc(F)cc3c2-c2c(O)c(C)nn(C)c2=O)cc1 [2-339] | 3 (Herbicidal rate of 40% or more and less than 70%) |
| Cc1nn(C)c(=O)c(-c2c(-c3ccc([N+](=O)[O-])cc3)sc3ccc(F)cc23)c1O [2-341] | 5 (Herbicidal rate of 90% or more (almost completely withered)) |

tested on: wild oat; assay: Test Example 5: herbicidal effect by foliage application, plastic box (Table 20, symbol I); type: in vivo, wild oat (Avena fatua); conditions: foliage application, AAH 320 g/ha, evaluated three weeks after application
How it was run: as §2

| Compound | I: wild oat, herbicidal effect (criteria 0-5) |
| --- | --- |
| Cc1nn(C)c(=O)c(-c2c(-c3ccc(O)cc3)sc3ccc(F)cc23)c1O [2-337] | 0 (Herbicidal rate of 5% or less (almost no effect)) |
| CC(=O)c1ccc(-c2sc3ccc(F)cc3c2-c2c(O)c(C)nn(C)c2=O)cc1 [2-339] | 3 (Herbicidal rate of 40% or more and less than 70%) |
| Cc1nn(C)c(=O)c(-c2c(-c3ccc([N+](=O)[O-])cc3)sc3ccc(F)cc23)c1O [2-341] | 4 (Herbicidal rate of 70% or more and less than 90%) |

tested on: green foxtail; assay: Test Example 4: herbicidal effect by soil treatment (Table 19, symbol G); type: in vivo, green foxtail (Setaria viridis); conditions: amount of applied herbicide 320 g/ha
How it was run: (§3)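 Applied as a water-diluted emulsion, the compound was sprayed onto soil covering newly sown seeds. Evaluation came three weeks after application, in a greenhouse held at 25° C. to 30° C.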

| Compound | herbicidal effect on G: green foxtail |
| --- | --- |
| Cc1nn(C)c(=O)c(-c2c(-c3ccc(O)cc3)sc3ccc(F)cc23)c1O [2-337] | 0 (Herbicidal rate of 5% or less (almost no effect)) |
| CC(=O)c1ccc(-c2sc3ccc(F)cc3c2-c2c(O)c(C)nn(C)c2=O)cc1 [2-339] | 0 (Herbicidal rate of 5% or less (almost no effect)) |
| Cc1nn(C)c(=O)c(-c2c(-c3ccc([N+](=O)[O-])cc3)sc3ccc(F)cc23)c1O [2-341] | 4 (Herbicidal rate of 70% or more and less than 90%) |

tested on: windgrass; assay: Test Example 5: herbicidal effect by foliage application, plastic box (Table 20, symbol L); type: in vivo, windgrass (Apera spica-venti); conditions: foliage application, AAH 320 g/ha, evaluated three weeks after application
How it was run: as §2

| Compound | L: windgrass, herbicidal effect (criteria 0-5) |
| --- | --- |
| Cc1nn(C)c(=O)c(-c2c(-c3ccc(O)cc3)sc3ccc(F)cc23)c1O [2-337] | 0 (Herbicidal rate of 5% or less (almost no effect)) |
| CC(=O)c1ccc(-c2sc3ccc(F)cc3c2-c2c(O)c(C)nn(C)c2=O)cc1 [2-339] | 5 (Herbicidal rate of 90% or more (almost completely withered)) |
| Cc1nn(C)c(=O)c(-c2c(-c3ccc([N+](=O)[O-])cc3)sc3ccc(F)cc23)c1O [2-341] | 4 (Herbicidal rate of 70% or more and less than 90%) |

tested on: barnyard grass; assay: Test Example 4: herbicidal effect by soil treatment (Table 19, symbol H); type: in vivo, barnyard grass (Echinochloa crus-galli); conditions: amount of applied herbicide 320 g/ha
How it was run: as §3

| Compound | herbicidal effect on H: barnyard grass |
| --- | --- |
| Cc1nn(C)c(=O)c(-c2c(-c3ccc(O)cc3)sc3ccc(F)cc23)c1O [2-337] | 0 (Herbicidal rate of 5% or less (almost no effect)) |
| CC(=O)c1ccc(-c2sc3ccc(F)cc3c2-c2c(O)c(C)nn(C)c2=O)cc1 [2-339] | 0 (Herbicidal rate of 5% or less (almost no effect)) |
| Cc1nn(C)c(=O)c(-c2c(-c3ccc([N+](=O)[O-])cc3)sc3ccc(F)cc23)c1O [2-341] | 3 (Herbicidal rate of 40% or more and less than 70%) |

tested on: persian speedwell; assay: Test Example 5: herbicidal effect by foliage application, plastic box (Table 20, symbol R); type: in vivo, Persian speedwell (Veronica persica); conditions: foliage application, AAH 320 g/ha, evaluated three weeks after application
How it was run: as §2

| Compound | R: persian speedwell, herbicidal effect (criteria 0-5) |
| --- | --- |
| Cc1nn(C)c(=O)c(-c2c(-c3ccc(O)cc3)sc3ccc(F)cc23)c1O [2-337] | 5 (Herbicidal rate of 90% or more (almost completely withered)) |
| CC(=O)c1ccc(-c2sc3ccc(F)cc3c2-c2c(O)c(C)nn(C)c2=O)cc1 [2-339] | 5 (Herbicidal rate of 90% or more (almost completely withered)) |
| Cc1nn(C)c(=O)c(-c2c(-c3ccc([N+](=O)[O-])cc3)sc3ccc(F)cc23)c1O [2-341] | 5 (Herbicidal rate of 90% or more (almost completely withered)) |

tested on: Japanese bulrush; assay: Test Example 2: herbicidal activity, application during weed generation under submerged conditions (Table 17, symbol B); type: in vivo, Japanese bulrush (Schoenoplectus juncoides); conditions: AAH 320 g/ha; application during weed generation, submerged conditions
How it was run: as §1

| Compound | herbicidal effect rating, B: Japanese bulrush |
| --- | --- |
| Cc1nn(C)c(=O)c(-c2c(-c3ccc(O)cc3)sc3ccc(F)cc23)c1O [2-337] | 2 (Herbicidal rate of 20% or more and less than 40%) |
| CC(=O)c1ccc(-c2sc3ccc(F)cc3c2-c2c(O)c(C)nn(C)c2=O)cc1 [2-339] | 3 (Herbicidal rate of 40% or more and less than 70%) |
| Cc1nn(C)c(=O)c(-c2c(-c3ccc([N+](=O)[O-])cc3)sc3ccc(F)cc23)c1O [2-341] | 3 (Herbicidal rate of 40% or more and less than 70%) |

tested on: wild oat; assay: Test Example 4: herbicidal effect by soil treatment (Table 19, symbol I); type: in vivo, wild oat (Avena fatua); conditions: amount of applied herbicide 320 g/ha
How it was run: as §3

| Compound | herbicidal effect on I: wild oat |
| --- | --- |
| Cc1nn(C)c(=O)c(-c2c(-c3ccc(O)cc3)sc3ccc(F)cc23)c1O [2-337] | 0 (Herbicidal rate of 5% or less (almost no effect)) |
| CC(=O)c1ccc(-c2sc3ccc(F)cc3c2-c2c(O)c(C)nn(C)c2=O)cc1 [2-339] | 0 (Herbicidal rate of 5% or less (almost no effect)) |
| Cc1nn(C)c(=O)c(-c2c(-c3ccc([N+](=O)[O-])cc3)sc3ccc(F)cc23)c1O [2-341] | 3 (Herbicidal rate of 40% or more and less than 70%) |

tested on: redroot pigweed; assay: Test Example 4: herbicidal effect by soil treatment (Table 19, symbol N); type: in vivo, redroot pigweed (Amaranthus retroflexus); conditions: amount of applied herbicide 320 g/ha
How it was run: as §3

| Compound | herbicidal effect on N: redroot pigweed |
| --- | --- |
| Cc1nn(C)c(=O)c(-c2c(-c3ccc(O)cc3)sc3ccc(F)cc23)c1O [2-337] | 0 (Herbicidal rate of 5% or less (almost no effect)) |
| CC(=O)c1ccc(-c2sc3ccc(F)cc3c2-c2c(O)c(C)nn(C)c2=O)cc1 [2-339] | 4 (Herbicidal rate of 70% or more and less than 90%) |
| Cc1nn(C)c(=O)c(-c2c(-c3ccc([N+](=O)[O-])cc3)sc3ccc(F)cc23)c1O [2-341] | 5 (Herbicidal rate of 90% or more (almost completely withered)) |

tested on: chickweed; assay: Test Example 4: herbicidal effect by soil treatment (Table 19, symbol P); type: in vivo, common chickweed (Stellaria media); conditions: amount of applied herbicide 320 g/ha
How it was run: as §3

| Compound | herbicidal effect on P: chickweed |
| --- | --- |
| Cc1nn(C)c(=O)c(-c2c(-c3ccc(O)cc3)sc3ccc(F)cc23)c1O [2-337] | 3 (Herbicidal rate of 40% or more and less than 70%) |
| CC(=O)c1ccc(-c2sc3ccc(F)cc3c2-c2c(O)c(C)nn(C)c2=O)cc1 [2-339] | 3 (Herbicidal rate of 40% or more and less than 70%) |
| Cc1nn(C)c(=O)c(-c2c(-c3ccc([N+](=O)[O-])cc3)sc3ccc(F)cc23)c1O [2-341] | 4 (Herbicidal rate of 70% or more and less than 90%) |

tested on: barnyard grass; assay: Test Example 5: herbicidal effect by foliage application, plastic box (Table 20, symbol H); type: in vivo, barnyard grass (Echinochloa crus-galli); conditions: foliage application, AAH 320 g/ha, evaluated three weeks after application
How it was run: as §2

| Compound | H: barnyard grass, herbicidal effect (criteria 0-5) |
| --- | --- |
| Cc1nn(C)c(=O)c(-c2c(-c3ccc(O)cc3)sc3ccc(F)cc23)c1O [2-337] | 0 (Herbicidal rate of 5% or less (almost no effect)) |
| CC(=O)c1ccc(-c2sc3ccc(F)cc3c2-c2c(O)c(C)nn(C)c2=O)cc1 [2-339] | 3 (Herbicidal rate of 40% or more and less than 70%) |
| Cc1nn(C)c(=O)c(-c2c(-c3ccc([N+](=O)[O-])cc3)sc3ccc(F)cc23)c1O [2-341] | 4 (Herbicidal rate of 70% or more and less than 90%) |

tested on: Japanese bulrush; assay: Test Example 1: herbicidal activity, application before weed generation under submerged conditions (Table 16, symbol B); type: in vivo, Japanese bulrush (Schoenoplectus juncoides); conditions: 320 g/ha applied herbicide
How it was run: (§4)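 Alluvial soil was flooded to 4 cm depth, weed seeds were sown mixed and 2.5-leaf rice seedlings were transplanted. On sowing day, the compound's emulsion, diluted in water to a set dose, was applied to the water surface. Plants grew at 25–30 °C and were scored 0–5 after three weeks.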

| Compound | Herbicidal effect on B: Japanese bulrush (grade 0-5) |
| --- | --- |
| Cc1nn(C)c(=O)c(-c2c(-c3ccc(O)cc3)sc3ccc(F)cc23)c1O [2-337] | 3 (Herbicidal rate of 40% or more and less than 70%) |
| CC(=O)c1ccc(-c2sc3ccc(F)cc3c2-c2c(O)c(C)nn(C)c2=O)cc1 [2-339] | 5 (Herbicidal rate of 90% or more (almost completely withered)) |
| Cc1nn(C)c(=O)c(-c2c(-c3ccc([N+](=O)[O-])cc3)sc3ccc(F)cc23)c1O [2-341] | 4 (Herbicidal rate of 70% or more and less than 90%) |

tested on: green foxtail; assay: Test Example 5: herbicidal effect by foliage application, plastic box (Table 20, symbol G); type: in vivo, green foxtail (Setaria viridis); conditions: foliage application, AAH 320 g/ha, evaluated three weeks after application
How it was run: as §2

| Compound | G: green foxtail, herbicidal effect (criteria 0-5) |
| --- | --- |
| Cc1nn(C)c(=O)c(-c2c(-c3ccc(O)cc3)sc3ccc(F)cc23)c1O [2-337] | 0 (Herbicidal rate of 5% or less (almost no effect)) |
| CC(=O)c1ccc(-c2sc3ccc(F)cc3c2-c2c(O)c(C)nn(C)c2=O)cc1 [2-339] | 4 (Herbicidal rate of 70% or more and less than 90%) |
| Cc1nn(C)c(=O)c(-c2c(-c3ccc([N+](=O)[O-])cc3)sc3ccc(F)cc23)c1O [2-341] | 5 (Herbicidal rate of 90% or more (almost completely withered)) |

tested on: oval-leafed pondweed; assay: Test Example 1: herbicidal activity, application before weed generation under submerged conditions (Table 16, symbol C); type: in vivo, oval-leafed pondweed (Monochoria vaginalis); conditions: 320 g/ha applied herbicide
How it was run: as §4

| Compound | Herbicidal effect on C: oval-leafed pondweed (grade 0-5) |
| --- | --- |
| Cc1nn(C)c(=O)c(-c2c(-c3ccc(O)cc3)sc3ccc(F)cc23)c1O [2-337] | 3 (Herbicidal rate of 40% or more and less than 70%) |
| CC(=O)c1ccc(-c2sc3ccc(F)cc3c2-c2c(O)c(C)nn(C)c2=O)cc1 [2-339] | 5 (Herbicidal rate of 90% or more (almost completely withered)) |
| Cc1nn(C)c(=O)c(-c2c(-c3ccc([N+](=O)[O-])cc3)sc3ccc(F)cc23)c1O [2-341] | 5 (Herbicidal rate of 90% or more (almost completely withered)) |

From patent publication US20230085307A1, “PYRIDAZINONE COMPOUND AND HERBICIDE” (NISSAN CHEMICAL CORPORATION, priority 2019, published 2023)
